Experimental data: patent publication US9243002B2, “Tetracyclic heterocycle compounds and methods of use thereof for the treatment of hepatitis C” (priority 2013, dated 2016)

Assays:
HCV genotype 1a replicon = assay: HCV replicon assay, genotype 1a (cell ELISA for NS3/4A); assay type: cell-based, hepatitis C virus; conditions: Hepatitis C virus, 96 h, read-out: 1a IC50 (nM), genotype 1a replicon cells, 96 hours incubation, NS3/4A ELISA
Procedure, shortened: (§1)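 Stable replicon cells plated with a compound dilution series without G418 and incubated 96 h, then lysed. Replicon RNA measured indirectly by cell ELISA with an NS3/4A-specific antibody. IC50 calculated relative to DMSO control by four-parameter fit.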

HCV genotype 1b replicon = assay: HCV replicon assay, genotype 1b (cell ELISA for NS3/4A); assay type: cell-based, hepatitis C virus; conditions: Hepatitis C virus, 96 h, read-out: 1b IC50 (nM), genotype 1b replicon cells, 96 hours incubation, NS3/4A ELISA
Procedure, shortened: as §1

SMILES | IC50 (HCV genotype 1a replicon) [nM] | IC50 (HCV genotype 1b replicon) [nM]
CNC(=O)c1c(-c2ccc(F)cc2)oc2cc(N(C)S(C)(=O)=O)c(-c3ccc4c(n3)-c3cc5c(F)cccc5n3CC(O)C4)cc12 (stereo not drawn) [Example 69] | 2.3 | 2.95
CNC(=O)c1c(-c2ccc(C)nc2)oc2cc(N(C)S(C)(=O)=O)c(-c3ccc4c(n3)-c3cc5c(F)cccc5n3CC(N3CC(F)C3)C4)cc12 (stereo not drawn) [Example 71] | 41.7 | 42.2
CNC(=O)c1c(-c2ccc(F)cc2)oc2cc(N(C)S(C)(=O)=O)c(-c3ccc4c(n3)-c3cc5c(F)cccc5n3CCC4)cc12 [Example 72, 5-(12-fluoro-6,7-dihydro-5H-pyrido[2′,3′:3,4]azepino[1,2-a]indol-2-yl)-2-(4-fluorophenyl)-N-methyl-6-(N-methylmethylsulfonamido)benzofuran-3-carboxamide] | 3.71 | 4.29
CNC(=O)c1c(-c2ccc(F)cc2)oc2cc(N(C)S(C)(=O)=O)c(-c3ccc4c(n3)-c3cc5c(C#N)cccc5n3CCC4)cc12 [Example 73] | 2.01 | 2.78
CNC(=O)c1c(-c2ccc(F)cc2)oc2cc(N(C)S(C)(=O)=O)c(-c3ccc4c(n3)-c3cc5c(F)cccc5n3C(=O)CC4)cc12 [Example 74, 5-(12-fluoro-7-oxo-6,7-dihydro-5H-pyrido[2′,3′:3,4]azepino[1,2-a]indol-2-yl)-2-(4-fluorophenyl)-N-methyl-6-(N-methylmethylsulfonamido)benzofuran-3-carboxamide] | 8.2 | 11.4
CNC(=O)c1c(-c2ccc(F)cc2)oc2cc(N(C)S(C)(=O)=O)c(-c3ccc4c(n3)-c3c(C)c5ccccc5n3CC4)cc12 [Example 76, 2-(4-fluorophenyl)-N-methyl-5-(12-methyl-5,6-dihydroindolo[1,2-h][1,7]naphthyridin-2-yl)-6-(N-methylmethylsulfonamido)benzofuran-3-carboxamide] | 1000 | 194
CNC(=O)c1c(-c2ccc(F)cc2)oc2cc(N(C)S(C)(=O)=O)c(-c3ccc4c(n3)-c3cc5ncccc5n3CC4)cc12 [Example 77] | 27.9 | 4.03
CNC(=O)c1c(-c2ccc(F)cc2)oc2cc(N(C)S(C)(=O)=O)c(-c3ccc4c(n3)-c3cc5nc(OC)ccc5n3CC4)cc12 [Example 78] | 206 | 22.1
CNC(=O)c1c(-c2ccc(F)cc2)oc2cc(N(C)S(C)(=O)=O)c(-c3ccc4ccn5c6ccccc6c(C)c5c4n3)cc12 [Example 79, 2-(4-fluorophenyl)-N-methyl-5-(12-methylindolo[1,2-h][1,7]naphthyridin-2-yl)-6-(N-methylmethylsulfonamido)benzofuran-3-carboxamide] | 93.8 | 77.3
CNC(=O)c1c(-c2ccc(F)cc2)oc2cc(N(C)S(C)(=O)=O)c(-c3ccc4ccn5c6ccc(OC)nc6cc5c4n3)cc12 [Example 80] | 27.7 | 9.77
CNC(=O)c1c(-c2ccc(F)cc2)oc2cc(N(C)S(C)(=O)=O)c(-c3ccc4ccn5c6ccc(O)nc6cc5c4n3)cc12 [Example 81] | 196 | 33.9
CNC(=O)c1c(-c2ccc(F)cc2)oc2cc(N(C)S(C)(=O)=O)c(-c3ccc4ccn5c6cccc(F)c6cc5c4n3)cc12 [Example 82, 5-(11-fluoroindolo[1,2-h][1,7]naphthyridin-2-yl)-2-(4-fluorophenyl)-N-methyl-6-(N-methylmethylsulfonamido)benzofuran-3-carboxamide] | 2.88 | 5.54
CNC(=O)c1c(-c2ccc(F)cc2)oc2cc(N(C)S(C)(=O)=O)c(-c3ccc4ccn5c6cccc(C#N)c6cc5c4n3)cc12 [Example 83] | 1.49 | 3.44
CNC(=O)c1c(-c2ccc(F)cc2F)oc2cc(N(C)S(C)(=O)=O)c(-c3ccc4ccn5c6cccc(F)c6cc5c4n3)cc12 [Example 84] | 4.28 | 6.41
CNC(=O)c1c(-c2ccc(F)cc2)oc2cc(N(C)S(C)(=O)=O)c(-c3ccc4c(n3)-c3cc5c(F)cccc5n3CC4)cc12 [Example 85, 5-(11-fluoro-5,6-dihydroindolo[1,2-h][1,7]naphthyridin-2-yl)-2-(4-fluorophenyl)-N-methyl-6-(N-methylmethylsulfonamido)benzofuran-3-carboxamide] | 2.99 | 3.29
CNC(=O)c1c(-c2ccc(F)cc2)oc2cc(N(C)S(C)(=O)=O)c(-c3ccc4c(n3)-c3cc5c(F)cccc5n3C4O)cc12 (stereo not drawn) [Example 87, 5-(10-fluoro-5-hydroxy-5H-pyrido[2′,3′:3,4]pyrrolo[1,2-a]indol-2-yl)-2-(4-fluorophenyl)-N-methyl-6-(N-methylmethylsulfonamido)benzofuran-3-carboxamide] | 7.69 | 7.29
CNC(=O)c1c(-c2ccc(F)cc2)oc2cc(N(C)S(C)(=O)=O)c(-c3ccc4c(n3)-c3cc5c(F)cccc5n3C4)cc12 [Example 88, 5-(10-fluoro-5H-pyrido[2′,3′:3,4]pyrrolo[1,2-a]indol-2-yl)-2-(4-fluorophenyl)-N-methyl-6-(N-methylmethylsulfonamido)benzofuran-3-carboxamide] | 8.73 | 9.43
CNC(=O)c1c(-c2ccc(F)cc2)oc2cc(N(C)S(C)(=O)=O)c(-c3ccc4c(n3)-c3cc5c(F)cccc5n3CC4F)cc12 (stereo not drawn) [Example 89, 5-(5,11-difluoro-5,6-dihydroindolo[1,2-h][1,7]naphthyridin-2-yl)-2-(4-fluorophenyl)-N-methyl-6-(N-methylmethylsulfonamido)benzofuran-3-carboxamide] | 2.12 | 5.49
CNC(=O)c1c(-c2ccc(F)cc2)oc2cc(N(C)S(C)(=O)=O)c(-c3ccc4c(n3)-c3cc5c(F)cccc5n3C(CN3CC(F)C3)C4)cc12 (stereo not drawn) [Example 90, 5-(11-fluoro-6-((3-fluoroazetidin-1-yl)methyl)-5,6-dihydroindolo[1,2-h][1,7]naphthyridin-2-yl)-2-(4-fluorophenyl)-N-methyl-6-(N-methylmethylsulfonamido)benzofuran-3-carboxamide] | 7.23 | 2.79
CNC(=O)c1c(-c2ccc(F)cc2)oc2cc(N(C)S(C)(=O)=O)c(-c3ccc4c(n3)-c3cc5c(F)cccc5n3C(CN3CC(F)(F)C3)C4)cc12 (stereo not drawn) [Example 91] | 27.6 | 9.23
CNC(=O)c1c(-c2ccc(F)cc2)oc2cc(N(C)S(C)(=O)=O)c(-c3ccc4c(n3)-c3cc5c(F)cccc5n3C(CN3CCC3)C4)cc12 (stereo not drawn) [Example 92] | 46.5 | 2.55
CNC(=O)c1c(-c2ccc(F)cc2)oc2cc(N(C)S(C)(=O)=O)c(-c3ccc4c(n3)-c3cc5c(F)cccc5n3C(CN3CC[C@@H](F)C3)C4)cc12 (stereo partly drawn) [Example 94] | 34 | 10.8
CNC(=O)c1c(-c2ccc(F)cc2F)oc2cc(N(C)S(C)(=O)=O)c(-c3ccc4c(n3)-c3cc5c(F)cccc5n3C(CN3CC(F)C3)C4)cc12 (stereo not drawn) [Example 95] | 8.91 | 7.53
CNC(=O)c1c(-c2ccc(F)cc2)oc2cc(N(C)S(C)(=O)=O)c(-c3ccc4c(n3)-c3cc5c(F)cccc5n3C(CF)C4)cc12 (stereo not drawn) [Example 96, 5-(11-fluoro-6-(fluoromethyl)-5,6-dihydroindolo[1,2-h][1,7]naphthyridin-2-yl)-2-(4-fluorophenyl)-N-methyl-6-(N-methylmethylsulfonamido)benzofuran-3-carboxamide] | 7.89 | 3.18
CNC(=O)c1c(-c2ccc(F)cc2)oc2cc(N(C)S(C)(=O)=O)c(-c3ccc4c(n3)-c3cc5c(F)cccc5n3CC43CC3)cc12 [Example 97, 5-(11′-fluoro-6′H-spiro[cyclopropane-1,5′-indolo[1,2-h][1,7]naphthyridin]-2′-yl)-2-(4-fluorophenyl)-N-methyl-6-(N-methylmethylsulfonamido)benzofuran-3-carboxamide] | 10.7 | 9.98
CNC(=O)c1c(-c2ccc(F)cc2)oc2cc(N(C)S(C)(=O)=O)c(-c3ccc4c(n3)-c3cc5c(F)cccc5n3CC=C4)cc12 [Example 98, 5-(12-fluoro-7H-pyrido[2′,3′:3,4]azepino[1,2-a]indol-2-yl)-2-(4-fluorophenyl)-N-methyl-6-(N-methylmethylsulfonamido)benzofuran-3-carboxamide] | 4.17 | 8.65
CNC(=O)c1c(-c2ccc(F)cc2)oc2cc(N(C)S(C)(=O)=O)c(-c3ccc4c(n3)-c3cc5c(F)cccc5n3CCCC4)cc12 [Example 99, 5-(13-fluoro-5,6,7,8-tetrahydropyrido[2′,3′:3,4]azocino[1,2-a]indol-2-yl)-2-(4-fluorophenyl)-N-methyl-6-(N-methylmethylsulfonamido)benzofuran-3-carboxamide] | 6.5 | 7.17
